Data published in patent publication US10654896B2, “FoxP3-binding peptides and uses thereof” (FUNDACIÓN PARA LA INVESTIGACIÓN MÉDICA APLICADA, priority 2016, dated 2020).
Where a SMILES comes first, the peptide text is derived from it. [ ]: non-standard residue; d: D form.

Key:
[1] = Human liver microsomal stability; assay type: in vitro ADME; details: human liver microsomes; for remaining at 20 min, 1 μM: read-out: % Remaining after 20 min; for remaining at 1 h, 1 μM: 60 min, read-out: % Remaining after 60 min; for half-life: peptide 1 μM, read-out: t1/2
Description: (§1) The data collected were analyzed to calculate a half-life (t1/2, min) for tested peptides at a final concentration of 1 μM. Briefly, 5 μL of stock solution of tested peptide (10 mM) were diluted in 495 μL of 1:1 Methanol/Water (final concentration of 100 μM, 50% MeOH). Then, 50 μL of this intermediate solution were diluted in 450 μL of 100 mM potassium phosphate buffer to a concentration of 10 μM (working solution, 5% MeOH). The NADPH regenerating system contains β-Nicotinamide adenine dinucleotide phosphate (Sigma, Cat. # N0505), Isocitric acid (Sigma, Cat. #11252) and Isocitric dehydrogenase (Sigma, Cat. #12002) at a final concentration of 1 unit/mL at incubation.
(§2) Human liver microsomes were obtained from BD Gentest (Cat. #452117) and mouse liver microsomes from Xenotech (Cat. # M1000), to a final concentration of 0.7 mg protein/mL. A volume of 10 μL of peptide solution and 80 μL of microsome solution were added to a 96-well plate and incubated for 10 min at 37° C. The reaction was started by the addition of 10 μL of NADPH regenerating system and stopped by the addition of 300 μL of stop solution (ACN at 4° C., including 100 ng/mL Tolbutamide and 100 ng/mL of Labetalol as internal standard) at different incubation times (0, 5, 10, 20, 30 and 60 min). Concentrations of test compound were quantified by LC-MS/MS methodologies (Shimadzu LC 20-AD/API4000) using peak area ratio of analyte/internal standard and the percent loss of parent compound was calculated under each time point to determine the half-life.

[2] = Mouse liver microsomal stability; assay type: in vitro ADME; details: mouse liver microsomes; for remaining at 20 min, 1 μM: read-out: % Remaining after 20 min; for remaining at 1 h, 1 μM: 60 min, read-out: % Remaining after 60 min; for half-life: peptide 1 μM
Description: as §1, §2

[3] = molecular target: T1, FOXP3/FOXP3 homodimerization (Homo sapiens, UniProt Q9BZS1); assay: FOXP3/FOXP3 homodimerization inhibition (Alphascreen); assay type: biochemical
T1 construct: made in house; host or cells: E. coli BL21 (DE3)
T1 sequence (Q9BZS1 1-431): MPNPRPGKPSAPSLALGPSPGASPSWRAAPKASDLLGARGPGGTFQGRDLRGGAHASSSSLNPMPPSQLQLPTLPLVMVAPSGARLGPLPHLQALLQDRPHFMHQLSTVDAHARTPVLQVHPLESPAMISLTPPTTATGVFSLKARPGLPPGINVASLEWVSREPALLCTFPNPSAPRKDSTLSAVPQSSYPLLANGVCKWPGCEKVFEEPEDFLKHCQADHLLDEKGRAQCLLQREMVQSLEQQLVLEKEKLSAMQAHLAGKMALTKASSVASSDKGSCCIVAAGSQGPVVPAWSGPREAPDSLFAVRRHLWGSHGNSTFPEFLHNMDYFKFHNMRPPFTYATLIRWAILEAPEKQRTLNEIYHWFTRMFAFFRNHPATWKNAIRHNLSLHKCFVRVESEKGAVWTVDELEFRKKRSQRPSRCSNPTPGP
From the text: Plasmid pET20b FOXP3-His was generated to produce the human FOXP3 tagged with 6 histidines at the C terminus of the protein. Briefly, plasmid pDEST15-FOXP3 (provided by Dr. Casal, Madrid, Spain) was used as template to amplify FOXP3 by PCR using the primers Upper FOXP3 Ndel catatgcccaaccccaggc (SEQ ID NO: 55) and Lower FOXP3 […] (SEQ ID NO: 56). The resulting fragment was subcloned in pET20b at Ndel and NotI sites. pET45b His-Runx1 was obtained by PCR of activated human CD4 T cells obtained from healthy volunteers (after the signature of an informed consent) using the primers Upper Runx1 atgcgtatccccgtagatg (SEQ ID NO: 57) and Lower Runx1 […] (SEQ ID NO: 58) and the fragment was cloned in pcDNA3.1. Then, pET45b and pcDNA3.1-Runx1 were digested with BamHI and NotI and ligated to obtain pET45b-Runx1. Plasmids were used to transform BL21 cells (DE3; Novagen, Schwalbach, Germany) for the expression of the recombinant protein. The transformed BL21 cells were grown in LB medium at 37° C. (1 liter of final culture medium) (with ampicilin 0.1 mg/ml). Once the OD of the culture was between 0.5 and 1.0, IPTG (0.4 mM, final concentration) was added. Bacteria were then cultured overnight in agitation and centrifuged for 10 min at 8000 rpm. Cell pellet was then resuspended in 4 ml Tris-HCl 0.1 M and frozen at −80° C. Cell pellet was then thawed and incubated with lisozyme (25 KU) and a protease inhibitor cocktail for 15 min at 30° C. before cell lysis induced with a French-press. The resultant pool was then centrifuged during 20 min at 11.000 rpm). The recombinant protein was purified from the soluble fraction of French-press cell extracts by affinity chromatography (Histrap, Pharmacia) following manufacturer's instructions and using an FPLC platform (AKTA, Pharmacia). Plasmid pDEST15-FOXP3 encoding the fusion protein GST-FOXP3 (GST fused to the isoform A from human FOXP3 gene), was transformed into BL21 cells for the expression of the recombinant protein. GST-FOXP3 protein was purified from the soluble fraction of cell extracts obtained, as described above, by affinity chromatography (GSTrap; Amersham, Piscataway, N.J.) using a fast protein liquid chromatography platform (AKTA; Amersham) following manufacturer's instructions. The eluted proteins were desalted using Hitrap desalting columns (Pharmacia) and analyzed by SDS-PAGE using Coomassie blue (Bio-Safe Coomassie reagent; Bio-Rad, Hercules, Calif.) and by Western blot.
It has been described that dimerization of FOXP3 is required for its function as a transcriptional regulator. Moreover, interaction between FOXP3 and the transcription factor Runx1, is crucially required for normal hematopoiesis including thymic T-cell development, but also for Treg suppressor activity (Reviewed in Lozano et al, Front Oncol. 2013, 3:294). Both activities are mediated by the intermediate region of Foxp3, which is the area of interaction between P60 and Foxp3. Thus, we studied the effect of P60 and their mutants on the FOXP3/Runx1 heterodimerization, as well as FOXP3/FOXP3 homodimerization by Alphascreen technology according to the manufacturer's instructions (Perkin Elmer, Benelux). AlphaScreen™ is a bead-based technology that is designed to measure the proximity of donor and acceptor beads conjugated to biomolecules of interest.
To measure FOXP3/FOXP3 homodimerization, recombinant Foxp3 was expressed with a Histine tag as disclosed in section (1) above, and captured by Nickel chelate Acceptor beads (Cat. AL108 Perkin Elmer) following manufacturer's instructions. The other version of recombinant FOXP3, expressing a GST tag (prepared as disclosed in section (1) above), was captured by Glutathione Donor beads (Perkin Elmer Cat. 6765300), following manufacturer's instructions. When the two proteins interacted together, the Donor and Acceptor beads come into proximity. Excitation of the Donor beads results in emission of light from the Acceptor beads. […]

| Compound | remaining at 20 min, 1 μM [1] | remaining at 1 h, 1 μM [1] | half-life [1] | remaining at 20 min, 1 μM [2] | remaining at 1 h, 1 μM [2] | half-life [2] | inhibition at 20 µM ([3]; read-out: Dimerization inhibition % inhibition (20 μM)) | inhibition at 100 µM ([3]; read-out: Dimerization inhibition % inhibition (100 μM)) |
| --- | --- | --- | --- | --- | --- | --- | --- | --- |
| CSCC[C@H](NC(=O)[C@H](C)NC(=O)[C@H](Cc1ccccc1)NC(=O)[C@H](Cc1ccccc1)NC(=O)[C@@H]1CCCN1C(=O)[C@H](Cc1c[nH]c2ccccc12)NC(=O)[C@H](CCSC)NC(=O)[C@H](CCCCN)NC(=O)[C@H](CCCNC(=N)N)NC(=O)[C@H](Cc1ccccc1)NC(=O)[C@H](CO)NC(=O)[C@H](CCC(N)=O)NC(=O)[C@H](Cc1ccccc1)NC(=O)[C@@H](CC(=O)O)NC(=O)[C@@H](N)CCCNC(=N)N)C(=O)O [compound 3] (H-R[dD]FQSFRKMWPFFAM-OH) | 0% | 0% | < 2.5 min | 0% | 0% | < 2.5 min |  |  |
| CSCC[C@H](NC(=O)[C@H](C)NC(=O)[C@H](Cc1ccccc1)NC(=O)[C@H](Cc1ccccc1)NC(=O)[C@@H]1CCCN1C(=O)[C@H](Cc1c[nH]c2ccccc12)NC(=O)[C@H](CCSC)NC(=O)[C@H](CCCCN)NC(=O)[C@H](CCCNC(=N)N)NC(=O)[C@H](Cc1ccccc1)NC(=O)[C@H](CO)NC(=O)[C@H](CCC(N)=O)NC(=O)[C@H](Cc1ccccc1)NC(=O)[C@H](C)NC(=O)[C@H](N)CCCNC(=N)N)C(=O)O [compound 46] (H-[dR]AFQSFRKMWPFFAM-OH; N-terminus and C-terminus assumed) |  |  |  |  |  |  | 90% |  |
| CSCC[C@@H]1NC(=O)[C@H](C)NC(=O)[C@H](Cc2ccccc2)NC(=O)[C@H](Cc2ccccc2)NC(=O)[C@@H]2CCCN2C(=O)[C@H](Cc2c[nH]c3ccccc23)NC(=O)[C@H](CCSC)NC(=O)[C@H](CCCCN)NC(=O)[C@H](CCCNC(=N)N)NC(=O)[C@H](Cc2ccccc2)NC(=O)[C@H](C)NC(=O)[C@H](CCC(N)=O)NC(=O)[C@H](Cc2ccccc2)NC(=O)[C@H](C)NC(=O)[C@H](CCCNC(=N)N)NC1=O [compound 50] (cyclo(RAFQAFRKMWPFFAM)) | 6.2% | 0% | 5.3 min | 12% | 0% | 8 min |  |  |
| H-RDFQSFRKMWPFFAM-OH [compound 1] |  |  |  |  |  |  |  | 59.7% |
